According to PubChem BioAssay (NCI):
Several values for one entry are separate records, joined by “and”; a condition that tells them apart may be missing. Equal values may be shown once.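 Exposure lasted 48 hours, with cells grown in 96-well plates and compounds tested at five concentrations. At the GI50, growth is halved. TGI: concentration producing complete growth inhibition.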 Where a SMILES comes first, the peptide text is derived from it. [ ]: non-standard residue; d: D form. The star is where a group is joined. ξ: configuration not given here. NMeF = CN[CH](Cc1ccccc1)C(=O)O; ξNMe2Val = CC(C)C(C(=O)*)N(C)C; NMeV = CN[CH](C(=O)O)C(C)C; ξNMeV = CNC(C(=O)O)C(C)C; Boc = CC(C)(C)OC(=O)*; OBn = c1ccc(CO*)cc1; OtBu = CC(C)(C)O*

Columns and labels:
Assay in all cases: growth of human tumour cells (NCI), 48 h
HCC-2998 colon = tested on: HCC-2998 colon
HCT-116 colon = tested on: HCT-116 colon
K-562 leukemia = tested on: K-562 leukemia
LOX IMVI melanoma = tested on: LOX IMVI melanoma
MDA-MB-231 breast = tested on: MDA-MB-231 breast
NCI-H226 lung = tested on: NCI-H226 lung
OVCAR-5 ovarian = tested on: OVCAR-5 ovarian
SK-MEL-28 melanoma = tested on: SK-MEL-28 melanoma
TK-10 renal = tested on: TK-10 renal
MDA-N = tested on: MDA-N

Row | SMILES | TGI (HCC-2998 colon) [µM] | TGI (HCT-116 colon) [µM] | TGI (K-562 leukemia) [µM] | TGI (LOX IMVI melanoma) [µM] | TGI (MDA-MB-231 breast) [µM] | TGI (NCI-H226 lung) | TGI (OVCAR-5 ovarian) | TGI (SK-MEL-28 melanoma) [µM] | TGI (TK-10 renal) [µM] | TGI (MDA-N) [µM] | GI50 (MDA-MB-231 breast) [µM] | GI50 (NCI-H226 lung) [µM] | GI50 (OVCAR-5 ovarian) [µM]
1 | O=c1[nH]cnc2c1cnn2Cc1cnnn1COCCO | > 100 | > 100 | > 100 | > 100 | > 100 | > 100 µM | > 100 µM | > 100 | > 100 |  |  |  | 
2 | CC(C)C(C(=O)N(C)C(Cc1ccccc1)C(=O)N(C)C(C(=O)N(C)C(C(=O)N1CCCC1C(=O)OC(C)(C)C)C(C)C)C(C)C)N(C)C (stereo unspecified) (ξNMe2Val-[NMeF][NMeV][NMeV]P-OtBu; configuration not given here) | 53.3 | > 100 | > 100 | 55.5 |  | > 100 µM |  |  | > 100 |  |  |  | 
3 | Cc1nn2c(c1C#N)NNc1c-2sc(=N)nnc1=O |  | > 100 | > 100 |  |  |  | > 100 µM | > 100 | > 100 |  |  |  | 
4 | CCSc1nc(N/N=C/c2cccs2)c2cnn(CO)c2n1 |  | 16.6 | 52.7 |  | 54.8 | 9.09 µM | 27 µM | 29.3 | 21.9 |  |  |  | 
5 | CN(C)CCC[N+]1=Nc2cccc3cccc(c23)N1 | > 100 | > 100 | > 100 | > 100 |  | > 100 µM | > 100 µM | > 100 | > 100 |  |  |  | 
6 | CC(C)(C)OC(=O)N1N=CCC1c1ccccc1 (stereo unspecified) | > 100 | > 100 | > 100 | > 100 |  | > 100 µM | > 100 µM |  | > 100 |  |  |  | 
7 | COC(=O)C(CCC1(C)OCCO1)=[N+]=[N-] | > 100 | > 100 | > 100 | > 100 |  | > 100 µM | > 100 µM | > 100 | > 100 |  |  |  | 
8 | CC#CCCCC1(C)CCNC1=S (stereo unspecified) | > 10 |  | > 10 | > 10 |  | > 10 µM | > 10 µM |  | > 10 | > 10 |  |  | 
9 | COc1ccc(-c2cc(-c3ccc(Nc4ccnc5cc(Cl)ccc45)cc3)[nH]c(=O)c2C#N)cc1 | > 100 | > 100 | > 100 | > 100 | > 100 | > 100 µM | > 100 µM | > 100 | > 100 |  |  |  | 
10 | CSc1nc(NCc2ccccc2)c2cnn(COCCO)c2n1 |  | > 100 | > 100 | > 100 | > 100 | > 100 µM | > 100 µM |  | > 100 | > 100 |  |  | 
11 | CC(C)C(C(=O)N(C)[C@H](C(=O)N1CCC[C@H]1C(=O)N(C)[C@@H](Cc1ccccc1)C(=O)OCc1ccccc1)C(C)C)N(C)C(=O)[C@@H](NC(=O)OC(C)(C)C)C(C)C (stereo partly specified) (Boc-V[ξNMeV][NMeV]P[NMeF]-OBn) |  | > 31.6 | 12.6 | > 31.6 |  | > 100 µM | > 31.6 µM | > 31.6 | > 31.6 |  |  |  | 
12 | O=S(O)c1cc(Cl)c(O)c(Cl)c1 | > 100 | > 100 | > 100 | > 100 |  |  | > 100 µM | > 100 | > 100 |  |  |  | 
13 | Cc1cc(C)c2c(n1)S(=O)(=O)N(CCCN1CCN(c3cccc(Cl)c3)CC1)/C(=C(\O)c1ccc(Br)cc1)C2=O |  | 52 | > 100 | > 100 | > 100 |  | > 100 µM | > 100 | 60.8 |  |  |  | 
14 | COC(=O)C12Oc3ccc(-c4ccc5c(c4O)C(O)=C4C(=O)CC(C)C(O)C4(C(=O)OC)O5)c(O)c3C(O)=C1C(=O)CC(C)C2O (stereo unspecified) |  |  | > 100 |  | 6.8 | 4.36 µM | 2.26 µM | 0.741 | 4.46 | > 100 |  |  | 
15 | O=c1[nH]c2ccc(CC(=S)N3CCOCC3)cc2o1 |  | > 100 |  | > 100 | > 100 | > 100 µM | > 100 µM | > 100 | > 100 |  |  |  | 
16 | COc1cc(O)c(Cc2ccccc2O)c(O)c1C(=O)CCc1ccccc1 | 19.8 | 13.7 | 20 | 22.9 |  | 32 µM | 21.8 µM | 27.2 |  |  |  |  | 
17 | N#COc1ccc(Oc2ccc(OC#N)cc2)cc1 | > 100 | > 100 | > 100 | 33.9 |  | > 100 µM | > 100 µM | > 100 | > 100 |  |  |  | 
18 | O=C1CC(c2ccccc2)n2c(nc3ccccc32)N1 (stereo unspecified) |  | > 100 | > 100 | > 100 | > 100 | > 100 µM | > 100 µM |  | > 100 | > 100 |  |  | 
19 | CC1OC(O[C@@H]2C=C3CC[C@@H]4[C@H](CC[C@]5(C)[C@@H](c6ccc(=O)oc6)CC[C@]45O)[C@@]3(C)CC2)C(O)C(OC2OC(CO)C(O)C(O)C2O)C1O (stereo partly specified) | 0.0422 |  |  |  | 0.0196 | 0.0549 µM and 0.0732 µM | 0.039 µM and 0.0523 µM | 0.0867 | 0.016 |  | 0.000388 | 0.0101 | 0.000256
